The source of these data is article PMC6017299, “Ent-Clerodane Diterpenes from the Bark of Croton oligandrus Pierre ex Hutch. and Assessment of Their Cytotoxicity against Human Cancer Cell Lines” (Molecules : A Journal of Synthetic Chemistry and Natural …, 2018).

Where two headings read alike, the source gives them in different places.

What all share (type): cell-based
Test [1] concerns PC3 (human prostate cancer cell line). Nature of the test: MTT cell viability assay, PC3 cells. The conditions noted are these: 0 to 200 µM, 48 h, mean ± SEM (n = 3), read-out: IC50 (50% cell growth inhibition) PC-3. The protocol:
(§1) The in vitro activity of the crude extracts, fractions and isolated compounds from C. oligandrus on metabolic cell viability was assessed against A549 (adenocarcinoma human alveolar basal epithelial cell 211 line), MCF7 (human breast adenocarcinoma cell line), PC3 (human prostate cancer cell line) and PNT2 212 (human normal prostate epithelium cell line). The resulting inhibitory activity is termed “cytotoxic activity” throughout the manuscript. The cell lines were grown in RPMI medium supplemented with L-glutamine (2 mM), penicillin (100 U/mL), streptomycin (100 μg/mL) and 10% foetal bovine serum (FBS) and cultured at 37 °C, 5% CO2 and 95% humidity. For experimental use, the cells were seeded into 96-well plates (1.2 × 10^4/well) and incubated for 24 h. Cells were then treated with crude extract (0–250 µg/mL) for 24 h or isolated compounds (0 to 200 µM) for 48 h and the cell viability was measured using the MTT assay. The formazan crystals formed were dissolved in DMSO and optical density was read at 570 nm using a ClarioStar plate reader, Manchester, UK. Three individual wells were assayed per treatment; the assay was repeated three times and cytotoxic activity was determined using the percentage of absorbance compared to the control cells [(absorbance of treated cells/absorbance of untreated cells) × 100]. Doxorubicin was used as the positive control and the IC50 value of each test sample was calculated using the software Graphad Prism 7.02, La Jolla, CA, USA.
(In general: Tetrazolium assays rely on reduction of a dye to a coloured formazan, in cell work by metabolically active cells.)

For test [2], the system named is A549 (adenocarcinoma human alveolar basal epithelial cell line). Nature of the test: MTT cell viability assay, A549 cells. The conditions noted are these: 0 to 200 µM, 48 h, mean ± SEM (n = 3), read-out: IC50 (50% cell growth inhibition) A549. How it is done: as §1
The subject of test [3] is MCF7 (human breast adenocarcinoma cell line). The experiment in a line: MTT cell viability assay, MCF7 cells. The conditions noted are these: 0 to 200 µM, mean ± SEM (n = 3), read-out: IC50 (50% cell growth inhibition) MCF-7. The protocol: (§2) The resulting inhibitory activity is termed “cytotoxic activity” throughout the manuscript. The cell lines were grown in RPMI medium supplemented with L-glutamine (2 mM), penicillin (100 U/mL), streptomycin (100 μg/mL) and 10% foetal bovine serum (FBS) and cultured at 37 °C, 5% CO2 and 95% humidity. For experimental use, the cells were seeded into 96-well plates (1.2 × 10^4/well) and incubated for 24 h. […] The formazan crystals formed were dissolved in DMSO and optical density was read at 570 nm using a ClarioStar plate reader, Manchester, UK. Three individual wells were assayed per treatment; the assay was repeated three times and cytotoxic activity was determined using the percentage of absorbance compared to the control cells [(absorbance of treated cells/absorbance of untreated cells) × 100].

Test [4] has as its system PNT2 (human normal prostate epithelium cell line). Nature of the test: MTT cell viability assay, PNT2 cells. The conditions noted are these: 0 to 200 µM, 48 h, noncancerous cells, mean ± SEM (n = 3), read-out: IC50 (50% cell growth inhibition) PNT2. How it is done:
as §1

Test [5] has as its system A549, MCF7, PC3 and PNT2 cell lines. Nature of the test: MTT cell viability assay, statements across the cell line panel. The conditions noted are these: Homo sapiens, positive control, read-out: IC50 range between the cell lines used. How it is done: as §2
Where [6] appears, read: Homo sapiens, PC-3, isolated compounds.
Setting [7] is: Homo sapiens, A549, isolated compounds.
The mark [8] stands for this setting: Homo sapiens, MCF7, isolated compounds, 48 h.
[9] abbreviates: Homo sapiens, PNT2, isolated compounds.

Broadly, the IC50 is the concentration needed to halve the response being measured. With `COc1cc(C=O)ccc1O` [Compound 8, vanillin], the IC50 in test [1] (setting [6]), in test [2] (setting [7]), in test [3] (setting [8]) and in test [4] (setting [9]) was over 200 µM in each case.

As to `COC(=O)C1=CCCC2C1(C(=O)OC)CCC(C)C21CC(c2ccoc2)OC1=O` (stereo not drawn) [Compound 5, 12-epi-crotocorylifuran], the IC50 in test [1] (setting [6]) was over 200 µM; in test [2] (setting [7]) it was 107 ± 27.2 µM; in test [3] (setting [8]), over 200 µM; in test [4] (setting [9]) it was over 200 µM.

For `COC(=O)C1=CC(=O)C=C2C1(C(=O)OC)CCC(C)C21CC(c2ccoc2)OC1=O` (centres unmarked) [Compound 1, megalocarpoidolide D], the half-maximal inhibitory concentration (IC50) is over 200 µM in test [1] (setting [6]); 63.8 ± 13.8 µM in test [2] (isolated compounds); 136 ± 22.7 µM in test [3] (Homo sapiens, MCF7, 48 h, isolated compounds); over 200 µM in test [4] (setting [9]).

For the compound `CC(=O)O[C@H]1CC[C@]2(C)[C@H]3CC[C@]4(C)C(=CC[C@@]5(C(=O)O)CCC(C)(C)C[C@H]54)[C@]3(C)CC[C@H]2C1(C)C` [Compound 9, acetyl-aleuritolic acid], the IC50 is 172 ± 39.7 µM in test [1] (setting [6]), 137 ± 18.9 µM in test [2] (setting [7]), over 200 µM in test [3] (setting [8]) and 168 ± 25.3 µM in test [4] (setting [9]).

On to `COC(=O)C1=CC(=O)C=C2C1(C(=O)OC)CCC(C)C21CC(c2ccoc2)OC1=O` (stereo not drawn) [Compound 2, 12-epi-megalocarpoidolide D], for which the IC50 in test [1] (isolated compounds) is over 200 µM; in test [2] (isolated compounds) it was 139 ± 22.1 µM; in test [3] (isolated compounds, 48 h) it was 171 ± 51.4 µM; in test [4] (isolated compounds), over 200 µM.

As for `C=C(C)[C@@H]1CC[C@]2(C)CC[C@]3(C)[C@H](CC[C@@H]4[C@@]5(C)CC[C@H](O)C(C)(C)[C@@H]5CC[C@]43C)[C@@H]12` [Compound 10, lupeol], the concentration for half-maximal inhibition (IC50) in test [1] (setting [6]) is 136 ± 21.1 µM; in test [2] (setting [7]) it was over 200 µM; in test [3] (setting [8]), over 200 µM; in test [4] (setting [9]) it was over 200 µM.

On to `COc1cccc2c1C(=O)c1c(O)c3c(c(O)c1C2=O)C[C@@](O)(C(=O)CO)C[C@@H]3O[C@H]1C[C@H](N)[C@H](O)[C@H](C)O1` [Doxorubicin, reference compound], for which the concentration for half-maximal inhibition (IC50) in test [1] (setting [6]) was 16.4 ± 2.9 µM; in test [2] (setting [7]), 1.3 ± 0.3 µM; in test [5], 0.7 to 16.4 µM; in test [3] (setting [8]) it was 0.7 ± 0.1 µM; in test [4] (setting [9]), 1.5 ± 0.3 µM.
